For 13 molecules, IC50 and Kd results are on record in US20250059188A1, “ARYLSULPHONAMIDE COMPOUNDS” (Anaxis Pharma Pty Ltd, priority 2021, published 2025).

One test relates to U937 cells. Description: Counter screen: U937 cell viability without TSQ cocktail (off-target effect). Further details: species or system human. To be noted: Homo sapiens, U-937, compound without TSQ cocktail, read-out: Off-target effect (IC50 cell-based assay). As for the experimental part:
(§1) • Cell Line ID: U937 human histiocytic leukemia cell line. • Cell Concentration (cells/well): Final cell density is 20000 cells per well. • Cell growth medium: HT-RPMI medium+7.4% Fetal Bovine Serum (FBS). Cells are cultured in Corning 150 cm^2 tissue culture flasks with vented caps at 37° C./5% CO2. • Incubation: Plates were incubated at 37° C./5% CO2 in a humidified incubator for 48 hours following addition of compounds and death stimuli (TSQ cocktail). • Compound concentration: 36 μM starting concentration, 1:3 dilution, 10 point • DMSO final concentration (% v/v): 0.3%. Compounds in TSQ Cocktail (T: TNF; S: Smac Mimetic; Q: Q-VD-OPh) and their Final Concentrations: • hTNF-Fc (100 ng/ml)—produced by standard procedures as shown in Bossen et al., J. Biol. Chem., 2006, 281(20), 13964-13971. • Compound A (500 nM) —Smac mimetic, Tetralogic and SYNthesis med chem • Q-VD-OPh (10 μM) —MP Biomedicals
(§2) The cellular assay was carried out according to the following steps: • 1. Each well was prepared by sequential addition of: • a. DMSO (control; columns 1-2 and 23-24) or compound in DMSO—addition was performed using acoustic transfer of nL volumes of stock compound to give final test concentrations of 36, 12, 4, 1.3, 0.44, 0.148, 0.049, 0.016, 0.005 and 0.002 μM. All wells were backfilled with DMSO to a final total volume in the well of 100 nL. • b. Following compound/DMSO addition in step (a), 40 μL of cell suspension (5×10^5 cells/mL) was added to provide a final cell concentration of 20,000 cells per well, and • c. Following cell addition in step (b), 10 μL of 5×TSQ cocktail (except to positive controls; columns 1 and 23) was added to each well. • 2. After 48 hours, plate was removed from the 37° C. incubator and equilibrated to room temperature for 45 minutes. • 3. 15 μL of room temperature CellTitre-Glo2™ (Promega™) was added to each well. • 4. Shook plates for 2 minutes (˜600 rpm) and incubated at room temperature for 15 minutes to allow signal to stabilise. • 5. Read luminescence readout on a plate reader.
(§3) 10 point titration curves were fitted with the 4 parameter logistic nonlinear regression model and the IC50 reported reflect the inflection point of the curve for curve fitting.
(§4) • Assay involving the TSQ cocktail (T: TNF; S: Smac mimetic; Q: Q-VD-OPh): TSQ treatment ensures that cells specifically undergo necroptotic cell death. TNF activates the TNF receptor, Smac mimetic directs the signal away from proinflammatory signaling and toward the RIPK1/RIPK3-mediated cell death pathways, and Q-VD-OPh ensures that the apoptotic response is blocked leaving only the programmed necrosis response. The compounds' activity (solution in DMSO) tested in this TSQ-induced assay was evaluated by determining the number of viable cells in culture by measuring the amount of ATP present as measured by CelltiterGlo. • Counter screen: In parallel, all compounds were tested for their ability to affect cell viability. The same U937 cells were treated with compound in DMSO without the TSQ cocktail. This counter screen enabled evaluation of off-target effects. In this case, cell viability was measured by CelltiterGlo.
A general note: The purpose of a counterscreen is to sort out artefacts and off-target activity.

The subject of test [1] is U937 human histiocytic leukemia cell line. In words: Inhibition of TSQ induced necroptosis in U937 cells (CellTitre-Glo). As to conditions: Homo sapiens, U-937, TSQ cocktail (TNF, Smac mimetic, Q-VD-OPh), 48 hours, read-out: Inhibition of TSQ-induced necroptosis (IC50 cell-based assay). As for the experimental part: Cellular Assay: Screening Compounds for Inhibition of TSQ Induced Necroptosis, 384 Well Plate Format.
as §1, §2
Percent viability was calculated for each compound according to equation (2): […]
as §3, §4

The target of a further test is human MLKL (full length) (Homo sapiens (Human), UniProt Q8NB16). In words: KINOMEscan binding assay, human MLKL (full length). As to conditions: equilibrium dissociation constant. The method, boiled down: (§5)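 Competition binding format with qPCR detection. Kinases, either phage-fused from E. coli lysates or HEK-293-derived with a DNA tag, bound ligand-coated beads in the presence of compound (11 points, 3-fold steps, 1% DMSO, top usually 30,000 nM). Kd from nonlinear Hill fitting with slope −1.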

A further test deals with human RIPK1 (Homo sapiens (Human), UniProt Q13546). Description: KINOMEscan binding assay, human RIPK1. As to conditions: equilibrium dissociation constant. Summed up: as §5
Another test deals with human RIPK3 (Homo sapiens (Human), UniProt Q9Y572). In words: KINOMEscan binding assay, human RIPK3. To be noted: equilibrium dissociation constant. Summed up: as §5

Bounds are passed on as bounds.

Chain of human MLKL (full length) (Q8NB16 whole entry, the tested form may be a part): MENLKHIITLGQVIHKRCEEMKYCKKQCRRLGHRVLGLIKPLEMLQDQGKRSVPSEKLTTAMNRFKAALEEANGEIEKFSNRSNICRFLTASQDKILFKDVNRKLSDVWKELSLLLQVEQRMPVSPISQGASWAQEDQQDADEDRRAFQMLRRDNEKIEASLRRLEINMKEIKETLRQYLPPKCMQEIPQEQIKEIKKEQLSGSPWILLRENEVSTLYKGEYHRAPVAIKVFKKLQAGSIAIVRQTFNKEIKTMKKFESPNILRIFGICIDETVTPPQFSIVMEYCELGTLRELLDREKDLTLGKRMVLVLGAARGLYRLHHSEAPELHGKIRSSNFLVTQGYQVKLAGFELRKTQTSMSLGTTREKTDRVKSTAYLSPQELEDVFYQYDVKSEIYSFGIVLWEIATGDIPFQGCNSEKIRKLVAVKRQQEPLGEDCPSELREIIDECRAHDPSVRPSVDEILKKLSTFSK
Chain of human RIPK1 (Q13546 whole entry): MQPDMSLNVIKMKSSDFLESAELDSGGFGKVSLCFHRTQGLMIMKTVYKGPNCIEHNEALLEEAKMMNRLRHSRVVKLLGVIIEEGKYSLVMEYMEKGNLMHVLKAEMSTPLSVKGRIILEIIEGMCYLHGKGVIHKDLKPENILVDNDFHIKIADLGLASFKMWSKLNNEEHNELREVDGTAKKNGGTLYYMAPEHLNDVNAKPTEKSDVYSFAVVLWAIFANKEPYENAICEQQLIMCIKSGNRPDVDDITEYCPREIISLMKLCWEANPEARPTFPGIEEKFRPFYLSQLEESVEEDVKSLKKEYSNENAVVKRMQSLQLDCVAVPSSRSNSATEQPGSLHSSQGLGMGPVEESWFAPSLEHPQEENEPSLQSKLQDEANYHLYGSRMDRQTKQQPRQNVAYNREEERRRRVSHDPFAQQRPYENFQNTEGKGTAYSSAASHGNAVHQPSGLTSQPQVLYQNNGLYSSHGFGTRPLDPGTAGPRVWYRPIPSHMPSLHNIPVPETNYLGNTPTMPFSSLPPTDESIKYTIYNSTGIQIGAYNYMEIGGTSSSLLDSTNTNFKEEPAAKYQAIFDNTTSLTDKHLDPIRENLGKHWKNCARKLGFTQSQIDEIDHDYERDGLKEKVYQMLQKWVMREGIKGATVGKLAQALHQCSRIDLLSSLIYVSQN
Chain of human RIPK3 (Q9Y572 whole entry): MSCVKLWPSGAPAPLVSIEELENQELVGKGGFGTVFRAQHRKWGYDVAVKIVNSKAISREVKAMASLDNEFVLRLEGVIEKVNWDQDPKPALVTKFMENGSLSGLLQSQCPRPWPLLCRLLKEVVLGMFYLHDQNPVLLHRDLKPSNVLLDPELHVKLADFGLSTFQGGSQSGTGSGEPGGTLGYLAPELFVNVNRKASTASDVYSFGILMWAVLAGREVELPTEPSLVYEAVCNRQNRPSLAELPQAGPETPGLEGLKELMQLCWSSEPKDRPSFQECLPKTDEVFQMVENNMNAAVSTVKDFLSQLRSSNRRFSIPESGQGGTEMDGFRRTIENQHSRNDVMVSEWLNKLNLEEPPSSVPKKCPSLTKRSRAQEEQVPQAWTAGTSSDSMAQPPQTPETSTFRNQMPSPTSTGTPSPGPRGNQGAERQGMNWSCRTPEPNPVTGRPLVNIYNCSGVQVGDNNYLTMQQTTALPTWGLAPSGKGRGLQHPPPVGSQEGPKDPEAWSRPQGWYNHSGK

For the molecule `Cc1ccc(-c2cnc(N)c3c(-c4ccc(NS(=O)(=O)C(F)F)c(O[C@@H](C)c5ccc(F)cc5)c4)nn(C)c23)cn1` [Compound 26, (S)-N-(4-(4-amino-1-methyl-7-(6-methylpyridin-3-yl)-1H-pyrazolo[4,3-c]pyridin-3-yl)-2-(1-(4-fluorophenyl)ethoxy)phenyl)-1,1-difluoromethanesulfonamide], the IC50 – broadly, the midpoint of a concentration-inhibition curve – with U937 cells is more than 10 µM; in test [1], 0.01 to 1 µM. For the same molecule, the Kd (usually a measure of binding affinity in units of concentration) at human MLKL (full length) was less than 0.001 µM; on human RIPK1, more than 10 µM; on human RIPK3, more than 10 µM.
As for `COc1cc(-c2cnc(N)c3c(-c4ccc(NS(=O)(=O)C(F)F)c(O[C@@H](C)c5ccc(F)cc5)c4)nn(C)c23)ccn1` [Compound 27, (S)-N-(4-(4-amino-7-(2-methoxypyridin-4-yl)-1-methyl-1H-pyrazolo[4,3-c]pyridin-3-yl)-2-(1-(4-fluorophenyl)ethoxy)phenyl)-1,1-difluoromethanesulfonamide], the values for the IC50 (in the test with U937 cells; in test [1]) were more than 10 µM and 0.01 to 1 µM, respectively. The results for the equilibrium dissociation constant (Kd) at human MLKL (full length), on human RIPK1 and at human RIPK3 were 0.001 to 0.1 µM, more than 10 µM and more than 10 µM, respectively.
`COc1ccc(-c2cnc(N)c3c(-c4ccc(NS(=O)(=O)C(F)F)c(O[C@@H](C)c5ccc(F)cc5)c4)nn(C)c23)cn1` [Compound 28, (S)-N-(4-(4-amino-7-(6-methoxypyridin-3-yl)-1-methyl-1H-pyrazolo[4,3-c]pyridin-3-yl)-2-(1-(4-fluorophenyl)ethoxy)phenyl)-1,1-difluoromethanesulfonamide]: the IC50 was more than 10 µM in the test on U937 cells and 0.01 to 1 µM in test [1]. Moreover, the Kd at human MLKL (full length) is less than 0.001 µM; on human RIPK1 it was more than 10 µM; at human RIPK3, more than 10 µM.
In the case of `CC(C)n1cc(-c2cnc(N)c3c(-c4ccc(NS(=O)(=O)C(F)F)c(O[C@@H](C)c5ccc(F)cc5)c4)nn(C)c23)cn1` [Compound 31, (S)-N-(4-(4-amino-7-(1-isopropyl-1H-pyrazol-4-yl)-1-methyl-1H-pyrazolo[4,3-c]pyridin-3-yl)-2-(1-(4-fluorophenyl)ethoxy)phenyl)-1,1-difluoromethanesulfonamide], the IC50 was more than 10 µM with U937 cells and less than 0.01 µM in test [1]. Further, the Kd is less than 0.001 µM on human MLKL (full length), more than 10 µM on human RIPK1 and more than 10 µM at human RIPK3.
Consider `C[C@H](Oc1cc(-c2cnn3c(-c4cnn(C)c4)cnc(N)c23)ccc1NS(=O)(=O)C(F)F)c1ccc(F)cc1` [Compound 35, (S)-N-(4-(4-amino-7-(1-methyl-1H-pyrazol-4-yl)pyrazolo[1,5-a]pyrazin-3-yl)-2-(1-(4-fluorophenyl)ethoxy)phenyl)-1,1-difluoromethanesulfonamide], for which the half-maximal inhibitory concentration (IC50) is more than 10 µM in the test with U937 cells and 0.01 to 1 µM in test [1]. In addition, the values for the Kd on human MLKL (full length), at human RIPK1 and at human RIPK3 were less than 0.001 µM, more than 10 µM and more than 10 µM, respectively.
Take `C[C@H](Oc1cc(-c2cnn3c(-c4cnn(C5CCOCC5)c4)cnc(N)c23)ccc1NS(=O)(=O)C(F)F)c1ccc(F)cc1` [Compound 36, (S)-N-(4-(4-amino-7-(1-(tetrahydro-2H-pyran-4-yl)-1H-pyrazol-4-yl)pyrazolo[1,5-a]pyrazin-3-yl)-2-(1-(4-fluorophenyl)ethoxy)phenyl)-1,1-difluoromethanesulfonamide]: the IC50 in the test on U937 cells is more than 10 µM; in test [1], less than 0.01 µM. The Kd on human MLKL (full length) is less than 0.001 µM; at human RIPK1, more than 10 µM; on human RIPK3, more than 10 µM.
Turning to `C[C@H](Oc1cc(-c2cnn3c(-c4cnn(CCO)c4)cnc(N)c23)ccc1NS(=O)(=O)C(F)F)c1ccc(F)cc1` [Compound 37, (S)-N-(4-(4-amino-7-(1-(2-hydroxyethyl)-1H-pyrazol-4-yl)pyrazolo[1,5-a]pyrazin-3-yl)-2-(1-(4-fluorophenyl)ethoxy)phenyl)-1,1-difluoromethanesulfonamide], the concentration for half-maximal inhibition (IC50) was more than 10 µM with U937 cells and 0.01 to 1 µM in test [1]. Moreover, the values for the Kd on human MLKL (full length), at human RIPK1 and at human RIPK3 were less than 0.001 µM, more than 10 µM and more than 10 µM, respectively.
With `C[C@H](Oc1cc(-c2nn(C)c3c(-c4cnn(C5COC5)c4)cnc(N)c23)ccc1NS(=O)(=O)C(F)F)c1ccc(F)cc1` [Compound 38, (S)-N-(4-(4-amino-1-methyl-7-(1-(oxetan-3-yl)-1H-pyrazol-4-yl)-1H-pyrazolo[4,3-c]pyridin-3-yl)-2-(1-(4-fluorophenyl)ethoxy)phenyl)-1,1-difluoromethanesulfonamide], the results for the IC50 (in the test on U937 cells; in test [1]) were more than 10 µM and less than 0.01 µM, respectively. Besides, the Kd was less than 0.001 µM at human MLKL (full length), more than 10 µM at human RIPK1 and more than 10 µM at human RIPK3.
Regarding `C[C@H](Oc1cc(-c2cnn3c(-c4ccncc4)cnc(N)c23)ccc1NS(=O)(=O)C(F)F)c1ccc(F)cc1` [Compound 39, (S)-N-(4-(4-amino-7-(pyridin-4-yl)pyrazolo[1,5-a]pyrazin-3-yl)-2-(1-(4-fluorophenyl)ethoxy)phenyl)-1,1-difluoromethanesulfonamide], the IC50 with U937 cells was more than 10 µM; in test [1], 0.01 to 1 µM. Besides, the Kd on human MLKL (full length) is less than 0.001 µM; at human RIPK1, more than 10 µM; at human RIPK3 it was more than 10 µM.
`C[C@H](Oc1cc(-c2nn(C)c3c(-c4ccncn4)cnc(N)c23)ccc1NS(=O)(=O)C(F)F)c1ccc(F)cc1` [Compound 40, (S)—N-(4-(4-amino-1-methyl-7-(pyrimidin-4-yl)-1H-pyrazolo[4,3-c]pyridin-3-yl)-2-(1-(4-fluorophenyl)ethoxy)phenyl)-1,1-difluoromethanesulfonamide]: the IC50 in the test on U937 cells is more than 10 µM; in test [1], less than 0.01 µM. Also, the Kd at human MLKL (full length) was less than 0.001 µM; on human RIPK1, more than 10 µM; at human RIPK3, more than 10 µM.
With `C[C@H](Oc1cc(-c2nn(C)c3c(-c4cnn(C5CCOC5)c4)cnc(N)c23)ccc1NS(=O)(=O)C(F)F)c1ccc(F)cc1` (stereo partly drawn) [Compound 41, N-(4-(4-amino-1-methyl-7-(1-(tetrahydrofuran-3-yl)-1H-pyrazol-4-yl)-1H-pyrazolo[4,3-c]pyridin-3-yl)-2-((S)-1-(4-fluorophenyl)ethoxy)phenyl)-1,1-difluoromethanesulfonamide], the 50% inhibitory concentration (IC50) with U937 cells was more than 10 µM; in test [1], less than 0.01 µM. Besides, the Kd was less than 0.001 µM on human MLKL (full length), more than 10 µM at human RIPK1 and more than 10 µM on human RIPK3.
As for `C[C@H](Oc1cc(-c2nn(C)c3c(C4CCN(C)CC4)cnc(N)c23)ccc1NS(=O)(=O)C(F)F)c1ccc(F)cc1` [Compound 42, (S)—N-(4-(4-amino-1-methyl-7-(1-methylpiperidin-4-yl)-1H-pyrazolo[4,3-c]pyridin-3-yl)-2-(1-(4-fluorophenyl)ethoxy)phenyl)-1,1-difluoromethanesulfonamide], the IC50 in the test with U937 cells was more than 10 µM; in test [1], 1 to 10 µM. Further, the Kd at human MLKL (full length) was 0.1 to 10 µM; at human RIPK1, more than 10 µM; on human RIPK3 it was more than 10 µM.
Consider `C[C@H](Oc1cc(-c2nn(C)c3c(C4=CCOCC4)cnc(N)c23)ccc1NS(=O)(=O)C(F)F)c1ccc(F)cc1` [Compound 43, (S)-N-(4-(4-amino-7-(3,6-dihydro-2H-pyran-4-yl)-1-methyl-1H-pyrazolo[4,3-c]pyridin-3-yl)-2-(1-(4-fluorophenyl)ethoxy)phenyl)-1,1-difluoromethanesulfonamide], for which the IC50 with U937 cells was more than 10 µM; in test [1], 0.01 to 1 µM. The Kd on human MLKL (full length) was 0.001 to 0.1 µM; at human RIPK1, more than 10 µM; at human RIPK3, more than 10 µM.
